According to ChEMBL document CHEMBL1201862, “PubChem BioAssay data set” (2004):
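Following 48 hours of exposure in 96-well plates, responses at five concentrations were used to interpolate endpoints linearly. The concentration for 50% growth inhibition is given as GI50.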 Active and inactive are the calls of the source. Cut-off read from the data, not from the text of the source: active = GI50 up to about 1.1 µM and inactive = higher.

Key:
Test in all cases: DTP human tumour cell line panel, 48 h
[1] = system: OVCAR-3
[2] = system: SF-268
[3] = system: RPMI-8226
[4] = system: SW-620
[5] = system: NCI-H460
[6] = system: UO-31
[7] = system: OVCAR-4
[8] = system: COLO 205
[9] = system: M14
[10] = system: MCF7
[11] = system: Malme-3M
[12] = system: ACHN
[13] = system: SK-MEL-5
[14] = system: BT-549
[15] = system: TK-10
[16] = system: NCI-H522
[17] = system: UACC-62
[18] = system: SN12C
[19] = system: SK-MEL-2
[20] = system: OVCAR-5
[21] = system: SNB-19
[22] = system: MDA-N
[23] = system: SF-295
[24] = system: HL-60
[25] = system: MOLT-4
[26] = system: HOP-92
[27] = system: U-251
[28] = system: HT-29
[29] = system: LOX IMVI
[30] = system: EKVX
[31] = system: NCI-H23
[32] = system: KM12
[33] = system: SR
[34] = system: CCRF-CEM
[35] = system: IGROV-1
[36] = system: MDA-MB-231
[37] = system: NCI/ADR-RES
[38] = system: HOP-62
[39] = system: SK-MEL-28
[40] = system: SK-OV-3
[41] = system: A498
[42] = system: A549
[43] = system: PC-3
[44] = system: MDA-MB-435
[45] = system: HCT-15
[46] = system: HCC 2998
[47] = system: UACC-257
[48] = system: Hs-578T
[49] = system: T47D
[50] = system: 786-0
[51] = system: CAKI-1
[52] = system: K562
[53] = system: OVCAR-8
[54] = system: DU-145
[55] = system: HCT-116
[56] = system: SF-539
[57] = system: SNB-75
[58] = system: NCI-H226
[59] = system: RXF 393

For `NS(=O)(=O)c1ccc(Nc2c3ccccc3nc3c(C(=O)NCCCN(CCO)CCO)cccc23)cc1`, the GI50 [1] was 24.3 µM (inactive), the GI50 [2] was 21.8 µM (inactive) and the GI50 [3] was 22.3 µM (inactive). The GI50 [4] was 21.5 µM (inactive), the GI50 [5] was 15.7 µM (inactive) and the GI50 [6] was > 100 µM (inactive). The GI50 [7] was 31.3 µM (inactive), the GI50 [8] was 13 µM (inactive) and the GI50 [9] was 24.2 µM (inactive). For the same molecule, the GI50 [10] was 4.8 µM (inactive), the GI50 [11] was 20.4 µM (inactive) and the GI50 [12] was 37.2 µM (inactive). The GI50 [13] was 14.8 µM (inactive), the GI50 [14] was 20.4 µM (inactive) and the GI50 [15] was 36.6 µM (inactive). For the same molecule, the GI50 [16] was 18.2 µM (inactive), the GI50 [17] was 17.9 µM (inactive) and the GI50 [18] was 16.4 µM (inactive). For the same molecule, the GI50 [19] was 20.1 µM (inactive), the GI50 [20] was 24.1 µM (inactive) and the GI50 [21] was 15.2 µM (inactive). The GI50 [22] was 19.8 µM (inactive), the GI50 [23] was 36.2 µM (inactive) and the GI50 [24] was > 10 µM (inactive). For the same molecule, the GI50 [25] was 4.86 µM (inactive), the GI50 [26] was 26.3 µM (inactive) and the GI50 [27] was 13.9 µM (inactive). The GI50 [28] was 25.6 µM (inactive), the GI50 [29] was 18.8 µM (inactive) and the GI50 [30] was 61.5 µM (inactive). For the same molecule, the GI50 [31] was 23.4 µM (inactive), the GI50 [32] was 16.7 µM (inactive) and the GI50 [33] was 12.8 µM (inactive). For the same molecule, the GI50 [34] was 8.41 µM (inactive), the GI50 [35] was 19.4 µM (inactive) and the GI50 [36] was 61.1 µM (inactive). For the same molecule, the GI50 [37] was > 100 µM (inactive), the GI50 [38] was 24.8 µM (inactive) and the GI50 [39] was 22.4 µM (inactive). The GI50 [40] was 27.2 µM (inactive), the GI50 [41] was 47.9 µM (inactive) and the GI50 [42] was 26.7 µM (inactive). For the same molecule, the GI50 [43] was 34.2 µM (inactive), the GI50 [44] was 19.6 µM (inactive) and the GI50 [45] was over 100 µM. For the same molecule, the GI50 [46] was 17.7 µM (inactive), the GI50 [47] was 31 µM (inactive) and the GI50 [48] was 19.6 µM (inactive). For the same molecule, the GI50 [49] was 15.8 µM (inactive), the GI50 [50] was 19.3 µM (inactive) and the GI50 [51] was > 100 µM (inactive). For the same molecule, the GI50 [52] was 18.7 µM (inactive), the GI50 [53] was 28.6 µM (inactive) and the GI50 [54] was 29.9 µM (inactive).
In the case of `CC(=O)Oc1cc2c(c3ncccc13)OC(C)(C)C2`, the GI50 [1] was 11.5 µM (inactive), the GI50 [2] was 10.8 µM (inactive) and the GI50 [3] was 20.3 µM (inactive). For the same molecule, the GI50 [4] was 13.3 µM (inactive), the GI50 [5] was 8.71 µM (inactive) and the GI50 [6] was > 100 µM (inactive). The GI50 [7] was 12.1 µM (inactive), the GI50 [55] was 13.4 µM (inactive) and the GI50 [8] was 18.1 µM (inactive). The GI50 [9] was 12.8 µM (inactive), the GI50 [10] was 16.7 µM (inactive) and the GI50 [11] was 11 µM (inactive). The GI50 [12] was 11.1 µM (inactive), the GI50 [13] was 12.5 µM (inactive) and the GI50 [14] was > 100 µM (inactive). For the same molecule, the GI50 [15] was 12.8 µM (inactive), the GI50 [16] was 1.17 µM (inactive) and the GI50 [56] was 12.1 µM (inactive). The GI50 [17] was > 100 µM (inactive), the GI50 [18] was 12.2 µM (inactive) and the GI50 [19] was 17.6 µM (inactive). The GI50 [20] was 14.8 µM (inactive), the GI50 [57] was 2.06 µM (inactive) and the GI50 [22] was 2.94 µM (inactive). The GI50 [23] was 13 µM (inactive), the GI50 [25] was 12.3 µM (inactive) and the GI50 [26] was 13 µM (inactive). The GI50 [27] was 12.4 µM (inactive), the GI50 [28] was 15.7 µM (inactive) and the GI50 [58] was 16.3 µM (inactive). For the same molecule, the GI50 [31] was > 100 µM (inactive), the GI50 [32] was 13.4 µM (inactive) and the GI50 [33] was 1.54 µM (inactive). The GI50 [34] was 10.5 µM (inactive), the GI50 [35] was 2.29 µM (inactive) and the GI50 [36] was 10.1 µM (inactive). For the same molecule, the GI50 [37] was 2.95 µM (inactive), the GI50 [38] was 5.85 µM (inactive) and the GI50 [39] was 15.2 µM (inactive). For the same molecule, the GI50 [40] was 27.2 µM (inactive), the GI50 [41] was 16.9 µM (inactive) and the GI50 [42] was 12.9 µM (inactive). For the same molecule, the GI50 [43] was 20.7 µM (inactive), the GI50 [44] was 3.33 µM (inactive) and the GI50 [45] was 11.8 µM. For the same molecule, the GI50 [46] was 15.5 µM (inactive), the GI50 [47] was 15.5 µM (inactive) and the GI50 [48] was 5.12 µM (inactive). For the same molecule, the GI50 [49] was 17.1 µM (inactive), the GI50 [50] was 14.6 µM (inactive) and the GI50 [59] was 12.4 µM (inactive). The GI50 [51] was 7.4 µM (inactive), the GI50 [52] was 6.19 µM (inactive) and the GI50 [53] was 14.2 µM (inactive). The GI50 [54] was 15.1 µM (inactive).
`O=C1c2cc3c(cc2CC1Br)CCC3` (configuration not stated) was tested, and the GI50 [1] was 2.03 µM (inactive), the GI50 [2] was 4.41 µM (inactive) and the GI50 [3] was 1.82 µM (inactive). The GI50 [4] was 1.42 µM (inactive), the GI50 [5] was 12.1 µM (inactive) and the GI50 [6] was 10.6 µM (inactive). For the same molecule, the GI50 [7] was 1.85 µM (inactive), the GI50 [55] was 1.53 µM (inactive) and the GI50 [8] was 1.97 µM (inactive). For the same molecule, the GI50 [9] was 1.45 µM (inactive), the GI50 [10] was 2.07 µM (inactive) and the GI50 [11] was 1.01 µM (active). For the same molecule, the GI50 [12] was 3.8 µM (inactive), the GI50 [13] was 1.18 µM (inactive) and the GI50 [14] was 1.96 µM (inactive). The GI50 [15] was 2.75 µM (inactive), the GI50 [16] was 1.45 µM (inactive) and the GI50 [56] was 2.03 µM (inactive). The GI50 [17] was 3.3 µM (inactive), the GI50 [18] was 1.7 µM (inactive) and the GI50 [19] was 1.98 µM (inactive). For the same molecule, the GI50 [20] was 5.64 µM (inactive), the GI50 [57] was 2.93 µM (inactive) and the GI50 [21] was 12.4 µM (inactive). For the same molecule, the GI50 [22] was 1.82 µM (inactive), the GI50 [23] was 5.19 µM (inactive) and the GI50 [24] was 2.9 µM (inactive). The GI50 [25] was 0.953 µM (active), the GI50 [27] was 3.26 µM (inactive) and the GI50 [28] was 2.36 µM (inactive). The GI50 [58] was 3.36 µM (inactive), the GI50 [29] was 0.369 µM (active) and the GI50 [30] was 14.6 µM (inactive). The GI50 [31] was 3 µM (inactive), the GI50 [32] was 7 µM (inactive) and the GI50 [33] was 0.787 µM (active). For the same molecule, the GI50 [34] was 0.405 µM (active), the GI50 [35] was 2.86 µM (inactive) and the GI50 [36] was 4.47 µM (inactive). For the same molecule, the GI50 [37] was 4.14 µM (inactive), the GI50 [38] was 13.8 µM (inactive) and the GI50 [39] was 3.1 µM (inactive). The GI50 [40] was 7.73 µM (inactive), the GI50 [41] was 18.1 µM (inactive) and the GI50 [42] was 18.2 µM (inactive). For the same molecule, the GI50 [43] was 3.28 µM (inactive), the GI50 [44] was 1.99 µM (inactive) and the GI50 [45] was 1.96 µM. The GI50 [46] was 5.64 µM (inactive), the GI50 [47] was 2.23 µM (inactive) and the GI50 [48] was 4.06 µM (inactive). The GI50 [49] was 2.39 µM (inactive), the GI50 [50] was 1.8 µM (inactive) and the GI50 [59] was 1.83 µM (inactive). For the same molecule, the GI50 [51] was 1.71 µM (inactive), the GI50 [52] was 1.39 µM (inactive) and the GI50 [53] was 1.98 µM (inactive). The GI50 [54] was 16 µM (inactive).
